According to patent US20100298141A1, “SUBSTITUTED PYRIDINE N-OXIDE HERBICIDES” (E. I. DU PONT DE NEMOURS AND COMPANY, priority 2007, published 2010):

Assays:
barnyardgrass = assay: Test A pre-/postemergence greenhouse test; assay type: in vivo, Echinochloa crus-galli; conditions: for Barnyardgrass plant response rating: 0 to 100 scale
Procedure, shortened: (§1)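 Two application timings were run side by side in the greenhouse. Before emergence, compound went onto the soil surface of loam–sand pots as a directed spray; after emergence, plants at 2–10 cm and the one- to two-leaf stage were treated. Visual injury versus controls was rated at approximately day ten.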

giant foxtail = assay: Test A pre-/postemergence greenhouse test; assay type: in vivo, Setaria faberi; conditions: for Foxtail, Giant plant response rating: 0 to 100 scale
Procedure, shortened: as §1

morningglory = assay: Test A pre-/postemergence greenhouse test; assay type: in vivo, Ipomoea spp.; conditions: for Morningglory plant response rating: 0 to 100 scale
Procedure, shortened: as §1

redroot pigweed = assay: Test A pre-/postemergence greenhouse test; assay type: in vivo, Amaranthus retroflexus; conditions: for Pigweed plant response rating: 0 to 100 scale
Procedure, shortened: as §1

wheat [1] = assay: Test A pre-/postemergence greenhouse test; assay type: in vivo, Triticum aestivum; conditions: for Wheat plant response rating: 0 to 100 scale
Procedure, shortened: as §1

corn = assay: Test A pre-/postemergence greenhouse test; assay type: in vivo, Zea mays; conditions: for Corn plant response rating: 0 to 100 scale
Procedure, shortened: as §1

wheat [2] = assay: Test C pre-/postemergence test; assay type: in vivo, Triticum aestivum
Procedure, shortened: (§2)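 Compounds in a non-phytotoxic solvent with surfactant applied preemergence to seeded pots and, at the same time, postemergence to plants 2–18 cm tall (1- to 4-leaf stage). Paddy tests: pots flooded to 3 cm, compound applied into the water, depth held throughout.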

bermudagrass = assay: Test C pre-/postemergence test; assay type: in vivo, Cynodon dactylon
Procedure, shortened: as §2

Surinam grass = assay: Test C pre-/postemergence test; assay type: in vivo, Brachiaria decumbens
Procedure, shortened: as §2

crabgrass = assay: Test C pre-/postemergence test; assay type: in vivo, Digitaria sanguinalis
Procedure, shortened: as §2

Goosegrass = assay: Test C pre-/postemergence test; assay type: in vivo, Eleusin indica
Procedure, shortened: as §2

lambsquarters = assay: Test C pre-/postemergence test; assay type: in vivo, Chenopodium album
Procedure, shortened: as §2

eastern black nightshade = assay: Test C pre-/postemergence test; assay type: in vivo, Solanum ptycanthum
Procedure, shortened: as §2

pigweed = assay: Test C pre-/postemergence test; assay type: in vivo, Amaranthus retroflexus
Procedure, shortened: as §2

[3] = system: common (oilseed) sunflower; assay: Test C pre-/postemergence test; assay type: in vivo, Helianthus annuus
Procedure, shortened: as §2

rice = assay: Test C flooded paddy test; assay type: in vivo, Oryza sativa; conditions: Flood
Procedure, shortened: (§3)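 Test compounds are applied straight into paddy water held 3 cm above the soil surface, with that flood maintained for the whole test. After 13 to 15 days in the greenhouse, each species is scored visually relative to controls.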

umbrella sedge = assay: Test C flooded paddy test; assay type: in vivo, Cyperus difformis; conditions: Flood
Procedure, shortened: as §3

[4] = Postemergence, 125 g ai/ha, 0 to 100 scale where 0 is no effect and 100 is complete control
[5] = Postemergence, 500 g ai/ha, 0 is no effect, 100 is complete control
[6] = Preemergence, 125 g ai/ha, 0 no effect, 100 complete control
[7] = Preemergence, 500 g ai/ha, 0 no effect, 100 complete control
[8] = 62 g ai/ha, Preemergence, scale 0 to 100
[9] = 125 g ai/ha, preemergence, scale 0 (no effect) to 100 (complete control)
[10] = Preemergence, 31 g ai/ha, scale 0 to 100 (0 no effect, 100 complete control)
[11] = preemergence, 250 g ai/ha, scale 0 (no effect) to 100 (complete control)
[12] = 62 g ai/ha, scale 0 to 100 (0 no effect, 100 complete control)
[13] = 250 g ai/ha, scale 0 to 100, 0 no effect, 100 complete control, 13 to 15 days

Question: Which “Plant response rating, Barnyardgrass” value (barnyardgrass; [4]) does the source give for `CCc1cc[n+]([O-])c([S+]([O-])Cc2c(C(F)(F)F)nn(C)c2OC(F)F)c1` (stereo not shown) [Compound 101] here?
Answer: 80

Question: What about the “Barnyardgrass plant response rating” value (barnyardgrass; [5]) of the same compound?
Answer: 90

Question: What about the “Barnyardgrass plant response rating” value (barnyardgrass; [6]) of the same compound?
Answer: 90

Question: What about the “Barnyardgrass plant response rating” value (barnyardgrass; [7]) of the same compound?
Answer: 100

Question: And the “Plant response rating, Foxtail, Giant” value (giant foxtail; [4])?
Answer: 80

Question: What about the “Foxtail, Giant plant response rating” value (giant foxtail; [5]) of the same compound?
Answer: 90

Question: And the “Foxtail, Giant plant response rating” value (giant foxtail; [6])?
Answer: 100

Question: And the “Foxtail, Giant plant response rating” value (giant foxtail; [7])?
Answer: 100

Question: And the “Plant response rating, Morningglory” value (morningglory; [4])?
Answer: 70

Question: What about the “Morningglory plant response rating” value (morningglory; [5]) of the same compound?
Answer: 100

Question: And the “Morningglory plant response rating” value (morningglory; [6])?
Answer: 80

Question: And the “Morningglory plant response rating” value (morningglory; [7])?
Answer: 100

Question: And the “Plant response rating, Pigweed” value (redroot pigweed; [4])?
Answer: 70

Question: What about the “Pigweed plant response rating” value (redroot pigweed; [5]) of the same compound?
Answer: 90

Question: And the “Pigweed plant response rating” value (redroot pigweed; [6])?
Answer: 100

Question: And the “Pigweed plant response rating” value (redroot pigweed; [7])?
Answer: 100

Question: What about the “Plant response rating, Wheat” value (wheat [1]; [4]) of the same compound?
Answer: 50

Question: And the “Wheat plant response rating” value (wheat [1]; [5])?
Answer: 60

Question: And the “Wheat plant response rating” value (wheat [1]; [6])?
Answer: 70

Question: What about the “Wheat plant response rating” value (wheat [1]; [7]) of the same compound?
Answer: 100

Question: What about the “Plant response rating, Corn” value (corn; [4]) of the same compound?
Answer: 60

Question: What about the “Corn plant response rating” value (corn; [5]) of the same compound?
Answer: 70

Question: What about the “Corn plant response rating” value (corn; [6]) of the same compound?
Answer: 50

Question: What about the “Corn plant response rating” value (corn; [7]) of the same compound?
Answer: 90

Question: What about the “Wheat plant response rating” value (wheat [2]; [8]) of the same compound?
Answer: 65

Question: And the “Wheat plant response rating” value (wheat [2]; [9])?
Answer: 85

Question: What about the “Plant response rating, Wheat” value (wheat [2]; [10]) of the same compound?
Answer: 50

Question: What about the “Wheat plant response rating” value (wheat [2]; [11]) of the same compound?
Answer: 95

Question: What about the “Bermudagrass plant response rating” value (bermudagrass; 62 g ai/ha, Preemergence, scale 0 to 100 (0 no effect, 100 complete control)) of the same compound?
Answer: 85

Question: What about the “Bermudagrass plant response rating” value (bermudagrass; [9]) of the same compound?
Answer: 100

Question: What about the “Plant response rating, Bermudagrass” value (bermudagrass; [10]) of the same compound?
Answer: 55

Question: What about the “Bermudagrass plant response rating” value (bermudagrass; [11]) of the same compound?
Answer: 100

Question: And the “Surinam Grass plant response rating” value (Surinam grass; [8])?
Answer: 80

Question: And the “Surinam Grass plant response rating” value (Surinam grass; [9])?
Answer: 95

Question: What about the “Plant response rating, Surinam Grass” value (Surinam grass; [10]) of the same compound?
Answer: 60

Question: What about the “Surinam Grass plant response rating” value (Surinam grass; [11]) of the same compound?
Answer: 98

Question: And the “Crabgrass, Large plant response rating” value (crabgrass; [8])?
Answer: 85

Question: And the “Crabgrass, Large plant response rating” value (crabgrass; [9])?
Answer: 95

Question: And the “Plant response rating, Crabgrass, Large” value (crabgrass; [10])?
Answer: 50

Question: What about the “Crabgrass, Large plant response rating” value (crabgrass; [11]) of the same compound?
Answer: 98

Question: And the “Goosegrass plant response rating” value (Goosegrass; [8])?
Answer: 85

Question: What about the “Goosegrass plant response rating” value (Goosegrass; [9]) of the same compound?
Answer: 100

Question: What about the “Plant response rating, Goosegrass” value (Goosegrass; [10]) of the same compound?
Answer: 80

Question: What about the “Goosegrass plant response rating” value (Goosegrass; [11]) of the same compound?
Answer: 100

Question: And the “Lambsquarters plant response rating” value (lambsquarters; [8])?
Answer: 100

Question: And the “Lambsquarters plant response rating” value (lambsquarters; [9])?
Answer: 100

Question: What about the “Plant response rating, Lambsquarters” value (lambsquarters; [10]) of the same compound?
Answer: 80

Question: And the “Lambsquarters plant response rating” value (lambsquarters; [11])?
Answer: 100

Question: And the “Nightshade plant response rating” value (eastern black nightshade; [8])?
Answer: 80

Question: What about the “Nightshade plant response rating” value (eastern black nightshade; [9]) of the same compound?
Answer: 95

Question: What about the “Plant response rating, Nightshade” value (eastern black nightshade; [10]) of the same compound?
Answer: 10

Question: What about the “Nightshade plant response rating” value (eastern black nightshade; [11]) of the same compound?
Answer: 100

Question: What about the “Pigweed plant response rating” value (pigweed; [8]) of the same compound?
Answer: 50

Question: What about the “Pigweed plant response rating” value (pigweed; [9]) of the same compound?
Answer: 95

Question: What about the “Plant response rating, Pigweed” value (pigweed; [10]) of the same compound?
Answer: 50

Question: What about the “Pigweed plant response rating” value (pigweed; [11]) of the same compound?
Answer: 98

Question: And the “Sunflower plant response rating” value [3, 8]?
Answer: 0

Question: What about the “Sunflower plant response rating” value [3, 9] of the same compound?
Answer: 5

Question: What about the “Plant response rating, Sunflower” value [3, 10] of the same compound?
Answer: 0

Question: What about the “Sunflower plant response rating” value [3, 11] of the same compound?
Answer: 60

Question: And the “Plant response rating, Rice” value (rice; [12])?
Answer: 0

Question: And the “Plant response rating, Rice” value (rice; [13])?
Answer: 75

Question: What about the “Plant response rating, Sedge, Umbrella” value (umbrella sedge; [12]) of the same compound?
Answer: 0

Question: What about the “Plant response rating, Sedge, Umbrella” value (umbrella sedge; [13]) of the same compound?
Answer: 90
